Experimental data as given in BigSolDB 2.1.

N#Cc1ccc([N+](=O)[O-])cc1
solubility (mole fraction) (in ethanol, 278.15 K): 0.00255 | solubility (mole fraction) (in ethanol, 283.15 K): 0.00302 | solubility (mole fraction) (in ethanol, 288.15 K): 0.00376 | solubility (mole fraction) (in ethanol, 293.15 K): 0.00454 | solubility (mole fraction) (in ethanol, 298.15 K): 0.00556 | solubility (mole fraction) (in ethanol, 303.15 K): 0.00672 | solubility (mole fraction) (in ethanol, 308.15 K): 0.00821 | solubility (mole fraction) (in ethanol, 313.15 K): 0.00984 | solubility (mole fraction) (in ethanol, 318.15 K): 0.0116 | solubility (mole fraction) (in ethyl acetate, 278.15 K): 0.0404 | solubility (mole fraction) (in ethyl acetate, 283.15 K): 0.0463 | solubility (mole fraction) (in ethyl acetate, 288.15 K): 0.0538 | solubility (mole fraction) (in ethyl acetate, 293.15 K): 0.0619 | solubility (mole fraction) (in ethyl acetate, 298.15 K): 0.0721 | solubility (mole fraction) (in ethyl acetate, 303.15 K): 0.0842 | solubility (mole fraction) (in ethyl acetate, 308.15 K): 0.1 | solubility (mole fraction) (in ethyl acetate, 313.15 K): 0.119 | solubility (mole fraction) (in ethyl acetate, 318.15 K): 0.142 | solubility (mole fraction) (in isopropanol, 278.15 K): 0.00162 | solubility (mole fraction) (in isopropanol, 283.15 K): 0.00196 | solubility (mole fraction) (in isopropanol, 288.15 K): 0.00246 | solubility (mole fraction) (in isopropanol, 293.15 K): 0.00304 | solubility (mole fraction) (in isopropanol, 298.15 K): 0.00374 | solubility (mole fraction) (in isopropanol, 303.15 K): 0.0046 | solubility (mole fraction) (in isopropanol, 308.15 K): 0.00572 | solubility (mole fraction) (in isopropanol, 313.15 K): 0.00708 | solubility (mole fraction) (in isopropanol, 318.15 K): 0.00877 | solubility (mole fraction) (in methanol, 278.15 K): 0.0032 | solubility (mole fraction) (in methanol, 283.15 K): 0.0037 | solubility (mole fraction) (in methanol, 288.15 K): 0.00448 | solubility (mole fraction) (in methanol, 293.15 K): 0.00541 | solubility (mole fraction) (in methanol, 298.15 K): 0.00652 | solubility (mole fraction) (in methanol, 303.15 K): 0.00788 | solubility (mole fraction) (in methanol, 308.15 K): 0.00955 | solubility (mole fraction) (in methanol, 313.15 K): 0.0115 | solubility (mole fraction) (in methanol, 318.15 K): 0.0135 | solubility (mole fraction) (in n-propanol, 278.15 K): 0.00227 | solubility (mole fraction) (in n-propanol, 283.15 K): 0.00271 | solubility (mole fraction) (in n-propanol, 288.15 K): 0.0033 | solubility (mole fraction) (in n-propanol, 293.15 K): 0.00407 | solubility (mole fraction) (in n-propanol, 298.15 K): 0.00505 | solubility (mole fraction) (in n-propanol, 303.15 K): 0.00619 | solubility (mole fraction) (in n-propanol, 308.15 K): 0.00758 | solubility (mole fraction) (in n-propanol, 313.15 K): 0.00908 | solubility (mole fraction) (in n-propanol, 318.15 K): 0.0108
